Consider six compounds from patent publication US12590126B2, “Compounds for selective disruption of protein-protein interactions” (SyntheX, Inc., priority 2017, dated 2026).

Read-outs that look alike come from different tables or passages of the source. Where a SMILES comes first, the peptide text is derived from it. [ ]: non-standard residue; d: D form. 2Nal = N[C@@H](Cc1ccc2ccccc2c1)C(=O)O; dNle = CCCC[C@@H](N)C(=O)O; dAbu = CC[C@@H](N)C(=O)O; Ahx = NCCCCCC(=O)O; βAla = NCCC(=O)O

The subject of data set [1] is SSP-25 cells. In words: xCELLigence cell death assay in SSP-25 cells (cellular assay for RAD51 inhibition). The conditions noted are these: concentration gradient added at 20 hour mark, only values with R^>0.85 shown. The class given is cell-based. On the procedure: The efficacy of the peptides described herein was assessed by their ability to cause death in SSP-25 cells, which have amplification of RAD51 and are dependent on its activity.
First, 5,000 SSP25 cells were plated, and adherence and growth was measured for 20 hours using live measurements of current impedance through the plate using the xCELLigence™ instrument. At the 20 hour mark, a concentration gradient of each compound or a PBS control was added to the SSP-25 cells, which were cultured in […] RMPI media with 10% FBS. […] Only values with confidence and R^>0.85 are shown.

Data set [2] concerns fresh human RBCs. The class given is cell-based. The conditions noted are these: red cells of human, 1 h, 250. Here is the method:
To assess the nonspecific lytic properties of each compounds disclosed herein, each mentioned compound was tested for hemolytic properties against fresh human RBCs. Briefly, donor blood was drawn into a K2EDTA anticoagulant tube from multiple O+ donors. The blood was washed 3 times in PBS. RBCs were diluted to 2% in PBS and compounds were added at various concentrations. Samples were incubated at 37 C for 1 hr, then centrifuged at 2200 rpm for 5 min. Supernatants were measured for absorbance at 450 nm or 405 nm. The percentage hemolysis was calculated as lysis relative to 1% Triton X-100 incubation.

Data set [3] is described as follows: Mouse pharmacokinetics, IV and IP dosing. The class given is in vivo, mice. As to conditions: for Vd / half-life: iv, 1 mg/kg. Here is the method: The pharmocokinetic parameters in mice by both intravenous (IV) and intraperitoneal (IP) dosing, as well as the serum and microsome stability for each of compound 22, 23, 24, and 25 was determined. Bioanalytical methods were developed for each compound using an LC-MS/MS method with LLOQ>100 ng/ml.
For in-vivo PK work, at least 3 mice were used per timepoint. For each compound, the animals were injected either IV or IP with the compound. IV injections used 1 mg/kg, and IP injections were at 15 mg/kg. Blood was collected at the indicated timepoints and analyzed according to the bioanalytical method developed.

Data set [4] is described as follows: in vitro. As to conditions: mouse, serum.
Description: Serum stability data was obtained using the appropriate animal serum, each incubated with the compound for up to two hours at 37 C.
A short description of data set [5]: in vitro. The conditions noted are these: human, microsomes.
Description: (§1) For HLM and MLM stability studies, each compound was incubated with the liver microsome mixture for up to an hour at 37 C in the presence of NADPH.
(§2) After the incubations, the reactions were stopped and the compounds were analyzed according to the method developed for each.
Data set [6] in a line: in vitro. As to conditions: mouse, microsomes.
Description: as §1, §2

In turn, `CCCC[C@@H](NC(=O)[C@@H](CC(C)C)NC(C)=O)C(=O)N[C@H](CCCNC(=N)N)C(=O)N[C@H](CC)C(=O)N[C@@H](C(=O)N[C@H](CCCNC(=N)N)C(=O)N[C@H](CC(C)C)C(=O)N[C@H](CCCNC(=N)N)C(=O)N[C@@H](C(=O)NCC(=O)N[C@H](CC(C)C)C(=O)N[C@H](CCCNC(=N)N)C(=O)N[C@H](CCCCN)C(=O)N[C@H](CCCNC(=N)N)C(=O)N[C@H](CCCNC(=N)N)C(=O)N[C@H](CCCNC(=N)N)C(=O)N[C@H](CCCNC(=N)N)C(=O)N[C@H](CCCNC(=N)N)C(=O)NCC(=O)N[C@@H](Cc1ccc2ccccc2c1)C(N)=O)C(C)C)C(C)C` [Compound 15, Ac-l{d-norLeucine}r(abu)vrlrvGlrkrrrrrGΦ-NH2] (Ac-[dL][dNle][dR][dAbu][dV][dR][dL][dR][dV]G[dL][dR][dK][dR][dR][dR][dR][dR]G[2Nal]-NH2) returned an IC50 in data set [1] of 7.2 µM. The “% Hemolysis (250 uM)” value in data set [2] is 49%.

`CCCC[C@@H](NC(=O)[C@@H](CC(C)C)NC(C)=O)C(=O)N[C@H](CCCNC(=N)N)C(=O)N[C@H](CO)C(=O)N[C@@H](C(=O)N[C@H](CCCNC(=N)N)C(=O)N[C@H](CC(C)C)C(=O)N[C@H](CCCNC(=N)N)C(=O)N[C@@H](C(=O)NCCC(=O)N[C@H](CC(C)C)C(=O)N[C@H](CCCNC(=N)N)C(=O)N[C@H](CCCCN)C(=O)N[C@H](CCCNC(=N)N)C(=O)N[C@H](CCCNC(=N)N)C(=O)N[C@H](CCCNC(=N)N)C(=O)N[C@H](CCCNC(=N)N)C(=O)N[C@H](CCCNC(=N)N)C(=O)NCC(=O)N[C@@H](Cc1ccc2ccccc2c1)C(N)=O)C(C)C)C(C)C` [Compound 17, Ac-l{d-norLeucine}rsvdrv[beta-ALA]lrkrrrrrGΦ-NH2] (Ac-[dL][dNle][dR][dS][dV][dR][dL][dR][dV][βAla][dL][dR][dK][dR][dR][dR][dR][dR]G[2Nal]-NH2) registered an IC50 in data set [1] of 20 µM. The “% Hemolysis (250 uM)” value in data set [2] was 32%.

`CCCC[C@@H](NC(=O)[C@@H](CCCNC(=N)N)NC(=O)[C@@H](CC(C)C)NC(=O)[C@@H](CCCNC(=N)N)NC(=O)[C@@H](CCCNC(=N)N)NC(=O)[C@@H](CC)NC(=O)[C@@H](CCCNC(=N)N)NC(=O)[C@@H](CCCC)NC(=O)[C@@H](CC(C)C)NC(C)=O)C(=O)NCCC(=O)N[C@H](CC(C)C)C(=O)N[C@H](CCCNC(=N)N)C(=O)N[C@H](CCCCN)C(=O)N[C@H](CCCNC(=N)N)C(=O)N[C@H](CCCNC(=N)N)C(=O)N[C@H](CCCNC(=N)N)C(=O)N[C@H](CCCNC(=N)N)C(=O)N[C@H](CCCNC(=N)N)C(=O)NCC(=O)N[C@@H](Cc1ccc2ccccc2c1)C(N)=O` [Compound 18, Ac-l{d-norLeucine}r(abu)rrlr[d-norLeucine][beta-ALA]lrkrrrrrGΦ-NH2] (Ac-[dL][dNle][dR][dAbu][dR][dR][dL][dR][dNle][βAla][dL][dR][dK][dR][dR][dR][dR][dR]G[2Nal]-NH2) showed an IC50 in data set [1] of 17.8 µM. In data set [2], the “% Hemolysis (250 uM)” value is reported as 17%.

With `CCCC[C@@H](NC(=O)[C@@H](CC(C)C)NC(=O)CN(C)S(=O)(=O)c1cccc2c(N(C)C)cccc12)C(=O)N[C@H](CCCNC(=N)N)C(=O)N[C@H](CO)C(=O)N[C@@H](C(=O)N[C@H](CCCNC(=N)N)C(=O)N[C@H](CC(C)C)C(=O)N[C@H](CCCNC(=N)N)C(=O)N[C@@H](C(=O)NCC(=O)N[C@H](CC(C)C)C(=O)N[C@H](CCCNC(=N)N)C(=O)N[C@H](CCCNC(=N)N)C(=O)N[C@H](CCCNC(=N)N)C(=O)N[C@H](CCCNC(=N)N)C(=O)N[C@H](CCCNC(=N)N)C(=O)N[C@H](CCCNC(=N)N)C(=O)N(C)CC(=O)N(C)CC(=O)OC)C(C)C)C(C)C` [Compound 20, DANSYL-Sarcosine-l{d-norLeucine}rsvrlrvGlrrrrrr-sarcosine-sarcosine-OMe], the “% Hemolysis (250 uM)” value in data set [2] was 84%.

As to `CCCC[C@@H](NC(=O)[C@@H](CC(C)C)NC(C)=O)C(=O)N[C@H](CCCNC(=N)N)C(=O)N[C@H](CO)C(=O)N[C@@H](C(=O)N[C@H](CCCNC(=N)N)C(=O)N[C@H](CC(C)C)C(=O)N[C@H](CCCNC(=N)N)C(=O)N[C@@H](C(=O)NCC(=O)N[C@H](CC(C)C)C(=O)N[C@H](CCCNC(=N)N)C(=O)N[C@H](CCCNC(=N)N)C(=O)N[C@H](CCCNC(=N)N)C(=O)N[C@H](CCCNC(=N)N)C(=O)N[C@H](CCCNC(=N)N)C(=O)N[C@H](CCCNC(=N)N)C(=O)N(C)CC(=O)N(C)CC(=O)OC)C(C)C)C(C)C` [Compound 21, Ac-l{d-norLeucine}rsvrlrvGlrrrrrr-sarcosine-sarcosine-OMe], the IC50 in data set [1] worked out at 25 µM. The “% Hemolysis (250 uM)” value in data set [2] amounted to 31%.

On to `CCCC[C@@H](NC(=O)[C@@H](CC(C)C)NC(C)=O)C(=O)N[C@H](CCCNC(=N)N)C(=O)N[C@H](C)C(=O)N[C@@H](C(=O)N[C@H](CCCNC(=N)N)C(=O)N[C@H](CC(C)C)C(=O)N[C@H](CCCNC(=N)N)C(=O)N[C@@H](C(=O)NCCC(=O)N[C@H](CC(C)C)C(=O)N[C@H](CCCNC(=N)N)C(=O)NCCCCCC(=O)N[C@H](CCCNC(=N)N)C(=O)NCCCCCC(=O)N[C@H](CCCNC(=N)N)C(=O)NCCCCCC(=O)N[C@H](CCCNC(=N)N)C(=O)NCCCCCC(=O)N[C@H](CCCNC(=N)N)C(=O)NCCCCCC(=O)N[C@H](CCCNC(=N)N)C(N)=O)C(C)C)C(C)C` [Compound 23, Ac-l{d-norLeucine}ravrlrv[beta-ALA]lr(Ahx)r(Ahx)r(Ahx)r(Ahx)r(Ahx)r-NH2] (Ac-[dL][dNle][dR][dA][dV][dR][dL][dR][dV][βAla][dL][dR][Ahx][dR][Ahx][dR][Ahx][dR][Ahx][dR][Ahx][dR]-NH2), for which the IC50 in data set [1] worked out at 20.6 µM. In addition, the “% Hemolysis (250 uM)” value in data set [2] worked out at 3%. The “AUC Extr” value in data set [3] (1 mg/kg IV) was 28.5%. The AUC(0-inf) in data set [3] (in vivo, 1 mg/kg IV) was 490 ng·h/mL; in data set [3] (in vivo, 15 mg/kg IP) it was 341 ng·h/mL. This compound also registered an area under the curve AUC(0-t) in data set [3] (in vivo, 1 mg/kg IV) of 347 ng·h/mL. The compound also had a C0 in data set [3] (in vivo, 1 mg/kg IV) of 1480 ng/mL. Also, the MRT inf is 44.3 min in data set [3] (in vivo, 1 mg/kg IV) and 394 min in data set [3] (in vivo, 15 mg/kg IP). This compound gave a clearance in data set [3] (in vivo, 1 mg/kg IV) of 36.1 mL/min/kg. For the same compound, the Vd in data set [3] (in vivo, 1 mg/kg IV, read-out: Vss) came out at 1.56 L/kg; in data set [3] (in vivo, 1 mg/kg IV, read-out: Vz), 1.71 L/kg. The half-life was 33.9 min in data set [3] (in vivo, 1 mg/kg IV, read-out: t½ (converted)); 33.8 min in data set [3] (in vivo, IV (1 mg/kg), read-out: Half-life Mouse IV); over 500 min in data set [4]; 108 min in data set [5]; 41.8 min in data set [6].
